These results are taken from article PMC6036132, “In Silico Workflow for the Discovery of Natural Products Activating the G Protein-Coupled Bile Acid Receptor 1” (Frontiers in Chemistry, 2018).

The target of this assay is T1, G protein-coupled bile acid receptor 1 (GPBAR1) (Homo sapiens, UniProt Q8TDU6).
T1 construct: full-length GPBAR1 expression plasmid (Origene), transiently transfected in HEK 293T cells with CRE-Luc and EGFP plasmids
T1 sequence (Q8TDU6 1-330): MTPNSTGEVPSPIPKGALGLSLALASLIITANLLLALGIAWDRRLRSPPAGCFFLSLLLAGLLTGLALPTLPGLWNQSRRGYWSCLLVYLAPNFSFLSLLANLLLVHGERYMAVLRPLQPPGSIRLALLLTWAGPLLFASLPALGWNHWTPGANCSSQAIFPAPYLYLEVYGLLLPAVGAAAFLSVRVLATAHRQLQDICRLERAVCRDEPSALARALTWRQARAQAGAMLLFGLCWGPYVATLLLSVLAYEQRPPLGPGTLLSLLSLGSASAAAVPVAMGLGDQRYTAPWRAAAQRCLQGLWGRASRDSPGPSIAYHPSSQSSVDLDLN
Put plainly: CRE-luciferase reporter assay in transfected HEK […] cells, EGFP-normalised. Format: cell-based. The settings on record: agonist; 18 h; relative to 10 μM LCA = 100%. A general note: Reporter assays use an easily measured gene product as a stand-in for the process of interest.

As for `C[C@H](CCC(=O)O)[C@H]1CC[C@H]2[C@@H]3[C@H](O)C[C@@H]4C[C@H](O)CC[C@]4(C)[C@H]3CC[C@]12C` [compound 3, chenodeoxycholic acid], the “Activity (at 5 μM)” value stood at 66.69 ± 8.72%.
